Laboratory results from ChEMBL document CHEMBL1201862, “PubChem BioAssay data set” (2004).
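Five concentrations, 48 hours, 96-well plates. The concentration for 50% growth inhibition is given as GI50.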 Calls of active or inactive are those of the source. Rule as the data show it: active = GI50 up to about 1.1 µM and inactive = higher. Peptide text beside a SMILES is read from it. * marks the point of attachment. Cbz = O=C(OCc1ccccc1)*; Boc = CC(C)(C)OC(=O)*; OBn = c1ccc(CO*)cc1

How the values were obtained:
Assay in all cases: inhibition of tumour cell growth, NCI panel, 48 h
[1] = tested on: NCI-H23
[2] = tested on: NCI-H460
[3] = tested on: T47D
[4] = tested on: CCRF-CEM
[5] = tested on: HT-29
[6] = tested on: NCI/ADR-RES
[7] = tested on: LOX IMVI
[8] = tested on: HL-60
[9] = tested on: SW-620
[10] = tested on: UACC-62
[11] = tested on: SK-MEL-2
[12] = tested on: TK-10
[13] = tested on: SNB-75
[14] = tested on: OVCAR-5
[15] = tested on: SK-MEL-28
[16] = tested on: HCT-116
[17] = tested on: MOLT-4
[18] = tested on: SK-MEL-5
[19] = tested on: A498

SMILES	GI50 [1]	GI50 [2]	GI50 [3]	GI50 [4]	GI50 [5]	GI50 [6]	GI50 [7]	GI50 [8]	GI50 [9]	GI50 [10]	GI50 [11]	GI50 [12]	GI50 [13]	GI50 [14]	GI50 [15]	GI50 [16]	GI50 [17]	GI50 [18]	GI50 [19]
CCOC(=O)n1[nH]c(=O)n(-c2ccccc2)c1=O	> 100 µM (inactive)	> 100 µM (inactive)	> 100 µM (inactive)	> 100 µM (inactive)	> 100 µM (inactive)	> 100 µM (inactive)	> 100 µM (inactive)	> 100 µM (inactive)	> 100 µM (inactive)	> 100 µM (inactive)	> 100 µM (inactive)	> 100 µM (inactive)	> 100 µM (inactive)	> 100 µM (inactive)	> 100 µM (inactive)	> 100 µM (inactive)	> 100 µM (inactive)	> 100 µM (inactive)	–
O=c1c(Sc2c(SCSc3cnc4ccccc4c3Sc3c[nH]c4ccccc4c3=O)cnc3ccccc23)c[nH]c2ccccc12	> 100 µM (inactive)	> 100 µM (inactive)	> 100 µM (inactive)	12.7 µM (inactive)	> 100 µM (inactive)	> 100 µM (inactive)	> 100 µM (inactive)	0.54 µM (active)	44.7 µM (inactive)	43.3 µM (inactive)	> 10 µM (inactive)	> 100 µM (inactive)	> 100 µM (inactive)	> 100 µM (inactive)	22.9 µM (inactive)	> 100 µM (inactive)	> 100 µM (inactive)	39.6 µM (inactive)	–
CC(C)(C)OC(=O)CC(NC(=O)OC(C)(C)C)C(=O)Oc1ccc([N+](=O)[O-])cc1 (stereo not given)	> 100 µM (inactive)	> 100 µM (inactive)	89.5 µM (inactive)	> 100 µM (inactive)	> 100 µM (inactive)	> 100 µM (inactive)	> 100 µM (inactive)	–	> 100 µM (inactive)	11.1 µM (inactive)	> 100 µM (inactive)	> 100 µM (inactive)	> 100 µM (inactive)	> 100 µM (inactive)	> 100 µM (inactive)	> 100 µM (inactive)	> 100 µM (inactive)	78.7 µM (inactive)	> 100 µM (inactive)
O=c1c2c([N+](=O)[O-])cccc2nc2[nH]c3ccccc3n12	32.9 µM (inactive)	20.9 µM (inactive)	15 µM (inactive)	> 75 µM (inactive)	63.2 µM (inactive)	26.4 µM (inactive)	32.8 µM (inactive)	> 75 µM (inactive)	> 75 µM (inactive)	19.5 µM (inactive)	14.4 µM (inactive)	18.7 µM (inactive)	–	> 75 µM (inactive)	> 75 µM (inactive)	34.1 µM (inactive)	> 75 µM (inactive)	35 µM (inactive)	26.6 µM (inactive)
c1ccc(C2=C(c3ccccc3)P(c3ccccc3)C2)cc1 (stereo not given)	–	92.3 µM (inactive)	> 100 µM (inactive)	22.5 µM (inactive)	> 100 µM (inactive)	40.1 µM (inactive)	–	–	64 µM (inactive)	–	> 100 µM (inactive)	> 100 µM (inactive)	32.7 µM (inactive)	> 100 µM (inactive)	> 100 µM (inactive)	83.4 µM (inactive)	22.1 µM (inactive)	–	> 100 µM (inactive)
CCOc1ccccc1N1CSc2nnc(-c3ccccc3)n2C1	> 100 µM (inactive)	> 100 µM (inactive)	> 100 µM (inactive)	20 µM (inactive)	73.3 µM (inactive)	> 100 µM (inactive)	–	–	49 µM (inactive)	> 100 µM (inactive)	> 100 µM (inactive)	> 100 µM (inactive)	–	> 100 µM (inactive)	> 100 µM (inactive)	53.8 µM (inactive)	> 100 µM (inactive)	> 100 µM (inactive)	> 100 µM (inactive)
CC(=O)NCCCCNCCCNC(C)=O	> 100 µM (inactive)	> 100 µM (inactive)	> 100 µM (inactive)	> 100 µM (inactive)	> 100 µM (inactive)	> 100 µM (inactive)	> 100 µM (inactive)	> 100 µM (inactive)	> 100 µM (inactive)	> 100 µM (inactive)	–	> 100 µM (inactive)	> 100 µM (inactive)	> 100 µM (inactive)	> 100 µM (inactive)	> 100 µM (inactive)	> 100 µM (inactive)	> 100 µM (inactive)	> 100 µM (inactive)
CCCCCCNCCc1c[nH]cn1	> 100 µM (inactive)	> 100 µM (inactive)	> 100 µM (inactive)	> 100 µM (inactive)	> 100 µM (inactive)	> 100 µM (inactive)	> 100 µM (inactive)	–	> 100 µM (inactive)	> 100 µM (inactive)	> 100 µM (inactive)	–	> 100 µM (inactive)	> 100 µM (inactive)	> 100 µM (inactive)	> 100 µM (inactive)	> 100 µM (inactive)	> 100 µM (inactive)	> 100 µM (inactive)
Cc1onc(-c2c(F)cccc2Cl)c1C(=O)N[C@@H]1C(=O)N2[C@@H]1SC(C)(C)[C@@H]2C(=O)O	> 100 µM (inactive)	> 100 µM (inactive)	> 100 µM (inactive)	–	> 100 µM (inactive)	> 100 µM (inactive)	–	–	> 100 µM (inactive)	> 100 µM (inactive)	> 100 µM (inactive)	> 100 µM (inactive)	> 100 µM (inactive)	> 100 µM (inactive)	> 100 µM (inactive)	> 100 µM (inactive)	–	> 100 µM (inactive)	> 100 µM (inactive)
COC(=O)C(CCCCNC(=O)OCc1ccccc1)NC(=O)C(CCC(=O)OCc1ccccc1)NC(=O)OC(C)(C)C (stereo not given) (Boc-Glu(OBn)-Lys(Cbz)-OMe; configuration not given here)	> 100 µM (inactive)	> 10 µM (inactive)	> 100 µM (inactive)	–	> 100 µM (inactive)	> 100 µM (inactive)	> 100 µM (inactive)	> 100 µM (inactive)	> 100 µM (inactive)	43 µM (inactive)	–	> 100 µM (inactive)	> 100 µM (inactive)	> 100 µM (inactive)	64 µM (inactive)	> 100 µM (inactive)	> 100 µM (inactive)	> 100 µM (inactive)	16.1 µM (inactive)
COc1c(CC=C(C)C)c(O)c(C(CC(C)C)c2c(O)c(C(C)=O)c(O)c3c2OC(C(C)(C)O)C3)c(O)c1C(C)=O (stereo not given) [ACROFOLIONE A]	3.75 µM (inactive)	4.13 µM (inactive)	3.21 µM (inactive)	5.36 µM (inactive)	4.71 µM (inactive)	3.82 µM (inactive)	4.38 µM (inactive)	1.97 µM (inactive)	6.25 µM (inactive)	5.26 µM (inactive)	–	–	–	5.38 µM (inactive)	9.18 µM (inactive)	3.68 µM (inactive)	3.4 µM (inactive)	3.41 µM (inactive)	3.83 µM (inactive)
